From the NIST ThermoML archive (doi:10.1016/j.fluid.2009.09.024)
Several values for one entry are separate records, joined by “and”; a condition that tells them apart may be missing. Identical values can stand only once.

How the values were obtained:
[1] = for vapor or sublimation pressure: Closed cell (Static) method; for mass density: Vibrating tube method
[2] = xn = mol fraction of the nth substance listed; conditions: Liquid, Vibrating tube method

Cc1ccccc1C [1,2-dimethylbenzene]
[1]
Conditions | mass density, 333.15 K | mass density, 353.15 K | vapor or sublimation pressure, 333.15 K | vapor or sublimation pressure, 353.15 K
Gas | – | 0.4397 kg/m3 and 0.4571 kg/m3 | – | –
Liquid | 845.8 kg/m3 and 845.839 kg/m3 | 828.5 kg/m3 and 828.528 kg/m3 | 5.32 kPa and 5.44 kPa | 12.8 kPa and 12.66 kPa

Cc1ccccc1C [1,2-dimethylbenzene] + Cc1ccccc1
mass density [kg/m3], [2]
Conditions | 333.15 K | 353.15 K
x2 = 0 | 845.8 | 828.5
x2 = 0.102 | – | 826.692
x2 = 0.108 | 844.136 | –
x2 = 0.202 | – | 824.931
x2 = 0.203 | 842.673 | –
x2 = 0.299 | – | 823.222
x2 = 0.301 | 841.173 | –
x2 = 0.4 | 839.661 | 821.449
x2 = 0.499 | 838.134 | 819.705
x2 = 0.6 | – | 817.918
x2 = 0.601 | 836.576 | –
x2 = 0.699 | 835.072 | 816.176
x2 = 0.799 | – | 814.417
x2 = 0.8 | 833.533 | –
x2 = 0.899 | – | 812.661
x2 = 0.9 | 831.999 | –

Cc1ccccc1C [1,2-dimethylbenzene] + O=S1(=O)CCCC1
[2], x1 = 1
Conditions | mass density [kg/m3]
333.15 K | 845.839
353.15 K | 828.528

Cc1cccc(C)c1 [1,3-dimethylbenzene]
[1]
Conditions | mass density, 333.15 K [kg/m3] | mass density, 353.15 K [kg/m3] | vapor or sublimation pressure, 333.15 K [kPa] | vapor or sublimation pressure, 353.15 K [kPa]
Gas | 0.252 | 0.5448 | – | –
Liquid | 829.305 | 811.602 | 6.59 | 15.09

Cc1cccc(C)c1 [1,3-dimethylbenzene] + O=S1(=O)CCCC1
[2], x1 = 1
Conditions | mass density [kg/m3]
333.15 K | 829.305
353.15 K | 811.602

c1ccccc1 [benzene]
[1]
Conditions | mass density, 333.15 K [kg/m3] | mass density, 353.15 K [kg/m3] | vapor or sublimation pressure, 333.15 K [kPa] | vapor or sublimation pressure, 353.15 K [kPa]
Gas | 1.5172 | 2.69 | – | –
Liquid | 835.696 | 814.086 | 52.45 | 100

c1ccccc1 [benzene] + CCCCCCCCC
[2], x1 = 1
Conditions | mass density [kg/m3]
333.15 K | 835.696
353.15 K | 814.086

CCCCCCCCC [nonane]
[1]
Conditions | mass density, 333.15 K [kg/m3] | mass density, 353.15 K [kg/m3] | vapor or sublimation pressure, 333.15 K [kPa] | vapor or sublimation pressure, 353.15 K [kPa]
Gas | 0.1868 | 0.4513 | – | –
Liquid | 685.961 | 669.919 | 3.97 | 10.28

CCCCCCCCC [nonane] + c1ccccc1
mass density [kg/m3], [2]
Conditions | 333.15 K | 353.15 K
x2 = 0 | 685.961 | 669.919
x2 = 0.1 | 700.985 | –
x2 = 0.101 | – | 684.481
x2 = 0.199 | – | 698.728
x2 = 0.2 | 715.957 | –
x2 = 0.248 | – | 705.756
x2 = 0.3 | – | 713.217
x2 = 0.302 | 731.175 | –
x2 = 0.399 | – | 727.581
x2 = 0.404 | 746.508 | –
x2 = 0.499 | – | 741.992
x2 = 0.502 | 761.194 | –
x2 = 0.599 | 775.788 | 756.286
x2 = 0.699 | 790.766 | –
x2 = 0.701 | – | 771.023
x2 = 0.799 | 805.683 | 785.21
x2 = 0.899 | 820.654 | 799.582
x2 = 0.94 | 826.713 | –
x2 = 0.969 | 831.191 | –

O=S1(=O)CCCC1 [sulfolane]
[1], Liquid
Conditions | mass density [kg/m3] | vapor or sublimation pressure [kPa]
333.15 K | 1231.12 | 0.01
353.15 K | 1214.39 | 0.04

O=S1(=O)CCCC1 [sulfolane] + Cc1cccc(C)c1
mass density [kg/m3], [2]
Conditions | 333.15 K | 353.15 K
x2 = 0 | 1231.12 | 1214.39
x2 = 0.01 | 1227.11 | –
x2 = 0.015 | 1225.1 | 1208.34
x2 = 0.02 | 1223.09 | 1206.33
x2 = 0.03 | 1219.07 | 1202.3
x2 = 0.05 | – | 1194.25
x2 = 0.1 | 1190.81 | 1173.97
x2 = 0.199 | 1150.86 | 1133.93
x2 = 0.299 | 1110.94 | 1093.91
x2 = 0.399 | 1070.45 | 1053.33
x2 = 0.501 | 1029.46 | 1012.24
x2 = 0.6 | 989.939 | 972.621
x2 = 0.7 | 949.485 | 932.07
x2 = 0.799 | 909.766 | 892.257
x2 = 0.9 | 869.443 | 851.836

O=S1(=O)CCCC1 [sulfolane] + Cc1ccccc1C
mass density [kg/m3], [2]
Conditions | 333.15 K | 353.15 K
x2 = 0 | 1231.12 | 1214.39
x2 = 0.01 | 1227.27 | 1210.53
x2 = 0.015 | 1225.35 | 1208.6
x2 = 0.02 | 1223.42 | 1206.67
x2 = 0.03 | 1219.57 | 1202.81
x2 = 0.1 | 1192.25 | 1175.45
x2 = 0.2 | 1153.84 | 1136.98
x2 = 0.3 | 1115.37 | 1098.46
x2 = 0.4 | 1076.99 | 1060.02
x2 = 0.499 | 1038.59 | 1021.56
x2 = 0.599 | 1000.24 | 983.157
x2 = 0.699 | 961.436 | 944.296
x2 = 0.801 | 922.401 | 905.202
x2 = 0.899 | 884.731 | 867.477

Cc1ccccc1 [toluene]
[1]
Conditions | mass density, 333.15 K [kg/m3] | mass density, 353.15 K [kg/m3] | vapor or sublimation pressure, 333.15 K [kPa] | vapor or sublimation pressure, 353.15 K [kPa]
Gas | 0.6829 | 1.3863 | – | –
Liquid | 830.467 | 810.89 | 18.62 | 38.4

Cc1ccccc1 [toluene] + Cc1ccccc1C
[2], x1 = 1
Conditions | mass density [kg/m3]
333.15 K | 830.467
353.15 K | 810.89
